{
  "source": "patent US11845730B2",
  "about": "“1,3-substituted cyclobutyl derivatives and uses thereof” (Novartis AG, priority 2021, dated 2023)",
  "target": "human TRPV1 (Homo sapiens (Human), UniProt Q8NER1)",
  "sequence (Q8NER1 whole entry)": "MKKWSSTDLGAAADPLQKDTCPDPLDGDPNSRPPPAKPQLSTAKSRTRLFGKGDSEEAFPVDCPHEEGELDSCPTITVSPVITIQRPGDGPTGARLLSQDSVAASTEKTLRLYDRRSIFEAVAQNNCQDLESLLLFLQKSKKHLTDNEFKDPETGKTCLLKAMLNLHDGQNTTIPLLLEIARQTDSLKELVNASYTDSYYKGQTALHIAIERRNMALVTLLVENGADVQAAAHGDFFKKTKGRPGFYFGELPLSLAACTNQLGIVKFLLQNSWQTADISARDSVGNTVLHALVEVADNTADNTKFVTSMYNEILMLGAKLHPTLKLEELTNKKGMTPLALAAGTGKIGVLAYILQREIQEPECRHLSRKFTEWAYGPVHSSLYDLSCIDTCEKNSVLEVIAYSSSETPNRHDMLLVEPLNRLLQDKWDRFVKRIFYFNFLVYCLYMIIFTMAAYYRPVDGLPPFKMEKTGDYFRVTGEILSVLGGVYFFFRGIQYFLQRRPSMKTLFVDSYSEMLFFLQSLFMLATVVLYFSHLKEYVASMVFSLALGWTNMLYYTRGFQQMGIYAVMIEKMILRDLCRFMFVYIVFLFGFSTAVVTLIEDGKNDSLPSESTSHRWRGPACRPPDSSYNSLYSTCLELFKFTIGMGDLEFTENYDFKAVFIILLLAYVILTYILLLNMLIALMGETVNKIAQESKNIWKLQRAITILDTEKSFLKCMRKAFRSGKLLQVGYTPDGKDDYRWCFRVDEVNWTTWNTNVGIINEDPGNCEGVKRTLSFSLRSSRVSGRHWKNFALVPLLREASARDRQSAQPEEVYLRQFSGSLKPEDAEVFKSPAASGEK",
  "conditions": "read-out: IC50 (μM), antagonist effect against human TRPV1; CHO cells expressing human TrpV1; stimulated with 2.5 μM NADA (EC80); mean of at least three independent experiments",
  "note": "Structures can show the parent of a compound that is named as a salt.",
  "experimental": "Chinese Hamster Ovary (CHO) cells transfected to express human TrpV1 receptor (which are herein referred to as CHO-huTrpV1 cells), were grown in F-12 Ham's Nutrient Mixture media (HyClone SH30026.01) supplemented with 10% Fetal Bovine Serum (Invitrogen #26140-079), 1% Antibiotic/antimycotic (Invitrogen #15240-062) and 500 ug/mL geneticin (ThermoFisher scientific #1031035). Cells were grown in T-75 flasks at 37° C. incubator with 5% CO2. The cells were passaged twice a week at a ratio of 1:10 to 1:20 to maintain steady growth. For experimentation, cells were harvested at approximately 80% confluency and plated onto 384 well black cell culture plates (cat #781091, Greinier Bio-One Inc.) at 15,000 cells per well in 20 μl media and grown overnight.\nThe loading dye was prepared following instruction of Calcium 6 assay kit (Molecular Probes, #R8190): 10 ml buffer from bottle B was added to 1 vial of bottle A (adapted to room temperature from −20° C.) and mixed well, then 2.5 mM of fresh prepared probenecid, was added and mixed well. 20 μl/well of loading dye was added on top of the cells, and incubated at 37° C. for 1 hour 30 min.\nAssay buffer preparation: 1×HBSS, 2 mM HEPES, 0.1% BSA plus 2.5 mM freshly prepared probenecid (Invitrogen, #P36400). 25 μl/well assay buffer in 384 well clear plate (cat #782281, Greiner Bio-one) was dispensed with buffer distributor (Multidrop ComB1 from Thermo Scientific). The compounds were in 384 Echo plate (cat #LPL0200, Labcyte) and the starting concentration of compound was 10 mM, then 1 to 3 serial dilution in 100% DMSO, 8 ul/well). 125 nl compounds was transferred to the 384 well plate containing 25 μl/well buffer with Echo® 555 Liquid Handler (Labcyte), such that the compound concentration was 5 fold of final concentration. The plate was shook slowly at 40 rpm/min for 10 min to mix. 10 μl of 5 fold compound in the buffer was transferred to the cell plate (containing 20 μl cells and 20 μl dye) using Vertical Pipetting Station 384ST (Agilent Technologies). Six fold of final concentration of NADA (N-arachidonyl dopamine, cat #A8848, Sigma) in the assay buffer was prepared and 30 μl/well was distributed in 384 well clear plate.\nAfter compounds were added to the cell plate with loading dye, within 10-15 minutes, cell plate and plate containing NADA was placed into the FLIPR (Fluorescent Imaging Plate Reader) instrument (Tetra System, Molecular device). The TRPV1 receptor was stimulated by application of 10 μl per well of NADA. For testing the effect of compounds for possible antagonism, 2.5 μM NADA was used at the EC80 concentration.\nFor determination of antagonist IC50 values (concentration of antagonist that inhibits response to NADA by 50%), at least 10 antagonist concentration were measured in triplicate. The response in the presence of the antagonist was calculated as a percentage of the control response to NADA and was plotted against the concentration of the antagonist. The IC50 was estimated by non-linear regression analysis to sigmoidal-logistic curves by HELIOS (PROD 2) system. These values were averaged (means and standard error of the mean) for at least three independent experiments.",
  "data": [
    {"smiles": "COc1ncc(O[C@H]2C[C@H](NCc3c(F)ccc4cnccc34)C2)cc1C(F)(F)F", "note": "[Example 92, (1r,3r)-N-((6-fluoroisoquinolin-5-yl)methyl)-3-((6-methoxy-5-(trifluoromethyl)pyridin-3-yl)oxy)cyclobutan-1-amine, HCl]", "values": [
      {"measurement": "IC50", "value": 0.58, "unit": "µM"}
    ]},
    {"smiles": "Fc1cc(O[C@H]2C[C@H](NCc3c(F)ccc4cnccc34)C2)ccc1OC(F)(F)F", "note": "[Example 93, (1r,3r)-3-(3-fluoro-4-(trifluoromethoxy)phenoxy)-N-((6-fluoroisoquinolin-5-yl)methyl)cyclobutan-1-amine, HCl]", "values": [
      {"measurement": "IC50", "value": 0.0826, "unit": "µM"}
    ]},
    {"smiles": "Fc1ccc2cnccc2c1CN[C@H]1C[C@H](Oc2ccc(C(F)(F)F)nc2)C1", "note": "[Example 94, (1r,3r)-N-((6-fluoroisoquinolin-5-yl)methyl)-3-((6-(trifluoromethyl)pyridin-3-yl)oxy)cyclobutan-1-amine, HCl]", "values": [
      {"measurement": "IC50", "value": 0.193, "unit": "µM"}
    ]},
    {"smiles": "Fc1ccc2cnccc2c1CN[C@H]1C[C@H](Oc2cncc(C(F)(F)F)c2)C1", "note": "[Example 95, (1r,3r)-N-((6-fluoroisoquinolin-5-yl)methyl)-3-((5-(trifluoromethyl)pyridin-3-yl)oxy)cyclobutan-1-amine, HCl]", "values": [
      {"measurement": "IC50", "value": 0.323, "unit": "µM"}
    ]},
    {"smiles": "Fc1ccc2cnccc2c1CN[C@H]1C[C@H](Oc2nc3ccccc3s2)C1", "note": "[Example 96, (1r,3r)-3-(benzo[d]thiazol-2-yloxy)-N-((6-fluoroisoquinolin-5-yl)methyl)cyclobutan-1-amine, HCl]", "values": [
      {"measurement": "IC50", "value": 0.747, "unit": "µM"}
    ]},
    {"smiles": "CCc1ccc2cnccc2c1CN[C@H]1C[C@H](Oc2ccc(F)c(C(F)(F)F)c2)C1", "note": "[Example 97, (1r,3r)-N-((6-ethylisoquinolin-5-yl)methyl)-3-(4-fluoro-3-(trifluoromethyl)phenoxy)cyclobutan-1-amine, HCl]", "values": [
      {"measurement": "IC50", "value": 0.28, "unit": "µM"}
    ]},
    {"smiles": "Fc1ccc(O[C@H]2C[C@H](NCc3cccc4cnc(Cl)cc34)C2)cc1C(F)(F)F", "note": "[Example 98, (1r,3r)-N-((3-chloroisoquinolin-5-yl)methyl)-3-(4-fluoro-3-(trifluoromethyl)phenoxy)cyclobutan-1-amine, HCl]", "values": [
      {"measurement": "IC50", "value": 0.418, "unit": "µM"}
    ]},
    {"smiles": "Fc1ccc(S[C@H]2C[C@H](NCc3cccc4cnccc34)C2)cc1C(F)(F)F", "note": "[Example 99, (1r,3r)-3-((4-fluoro-3-(trifluoromethyl)phenyl)thio)-N-(isoquinolin-5-ylmethyl)cyclobutan-1-amine, HCl]", "values": [
      {"measurement": "IC50", "value": 0.362, "unit": "µM"}
    ]},
    {"smiles": "Fc1ccc(S[C@H]2C[C@H](NCc3c(F)ccc4cnccc34)C2)cc1C(F)(F)F", "note": "[Example 100, (1r,3r)-3-((4-fluoro-3-(trifluoromethyl)phenyl)thio)-N-((6-fluoroisoquinolin-5-yl)methyl)cyclobutan-1-amine, HCl]", "values": [
      {"measurement": "IC50", "value": 0.074, "unit": "µM"}
    ]},
    {"smiles": "Fc1cc(O[C@H]2C[C@H](NCc3c(F)ccc4cnccc34)C2)ccc1C(F)F", "note": "[Example 101, (1r,3r)-3-(4-(difluoromethyl)-3-fluorophenoxy)-N-((6-fluoroisoquinolin-5-yl)methyl)cyclobutan-1-amine]", "values": [
      {"measurement": "IC50", "value": 0.0147, "unit": "µM"}
    ]},
    {"smiles": "Fc1ccc(O[C@H]2C[C@H](NCc3c(F)ccc4cncnc34)C2)cc1C(F)(F)F", "note": "[Example 102, (1r,3r)-3-(4-fluoro-3-(trifluoromethyl)phenoxy)-N-((7-fluoroquinazolin-8-yl)methyl)cyclobutan-1-amine]", "values": [
      {"measurement": "IC50", "value": 0.0603, "unit": "µM"}
    ]},
    {"smiles": "O=C(Cc1c(F)cc(CO)c2cnccc12)N[C@H]1C[C@H](Oc2ccc(F)c(C(F)(F)F)c2)C1", "note": "[Example 103, N-((1r,3r)-3-(4-fluoro-3-(trifluoromethyl)phenoxy)cyclobutyl)-2-(6-fluoro-8-(hydroxymethyl)isoquinolin-5-yl)acetamide]", "values": [
      {"measurement": "IC50", "value": 0.00044, "unit": "µM"}
    ]},
    {"smiles": "NCC(O)c1cc(F)c(CN[C@H]2C[C@H](Oc3ccc(F)c(C(F)(F)F)c3)C2)c2ccncc12", "note": "(stereo partly drawn) [Example 104, 2-amino-1-(6-fluoro-5-((((1r,3r)-3-(4-fluoro-3-(trifluoromethyl)phenoxy)cyclobutyl)amino)methyl)isoquinolin-8-yl)ethan-1-ol]", "values": [
      {"measurement": "IC50", "value": 2.15, "unit": "µM"}
    ]},
    {"smiles": "Fc1ccc(CO[C@H]2C[C@H](NCc3c(F)ccc4cnccc34)C2)c(F)c1", "note": "[Example 105, (1r,3r)-3-((2,4-difluorobenzyl)oxy)-N-((6-fluoroisoquinolin-5-yl)methyl)cyclobutan-1-amine]", "values": [
      {"measurement": "IC50", "value": 1.28, "unit": "µM"}
    ]},
    {"smiles": "Cc1cc(O[C@H]2C[C@H](NCc3c(F)ccc4cnccc34)C2)cc(C(F)(F)F)n1", "note": "[Example 106, (1r,3r)-N-((6-fluoroisoquinolin-5-yl)methyl)-3-((2-methyl-6-(trifluoromethyl)pyridin-4-yl)oxy)cyclobutan-1-amine]", "values": [
      {"measurement": "IC50", "value": 1.65, "unit": "µM"}
    ]},
    {"smiles": "Fc1ccc2cnccc2c1CN[C@H]1C[C@H](Oc2nc(C(F)(F)F)cs2)C1", "note": "[Example 107, (1r,3r)-N-((6-fluoroisoquinolin-5-yl)methyl)-3-((4-(trifluoromethyl)thiazol-2-yl)oxy)cyclobutan-1-amine]", "values": [
      {"measurement": "IC50", "value": 1.91, "unit": "µM"}
    ]},
    {"smiles": "N#Cc1ncc(O[C@H]2C[C@H](NCc3c(F)ccc4cnccc34)C2)cn1", "note": "[Example 108, 5-((1r,3r)-3-(((6-fluoroisoquinolin-5-yl)methyl)amino)cyclobutoxy)pyrimidine-2-carbonitrile]", "values": [
      {"measurement": "IC50", "value": 2.51, "unit": "µM"}
    ]},
    {"smiles": "Nc1nccc2c(CN[C@H]3C[C@H](Oc4ccc(F)c(C(F)(F)F)c4)C3)cccc12", "note": "[Example 109, 5-((((1r,3r)-3-(4-fluoro-3-(trifluoromethyl)phenoxy)cyclobutyl)amino)methyl)isoquinolin-1-amine]", "values": [
      {"measurement": "IC50", "value": 1.46, "unit": "µM"}
    ]},
    {"smiles": "Fc1ccc2cnccc2c1CN[C@H]1C[C@H](Oc2ccc(C(F)F)nc2)C1", "note": "[Example 110, (1r,3r)-3-((6-(difluoromethyl)pyridin-3-yl)oxy)-N-((6-fluoroisoquinolin-5-yl)methyl)cyclobutan-1-amine]", "values": [
      {"measurement": "IC50", "value": 1.38, "unit": "µM"}
    ]},
    {"smiles": "Fc1ccc2cnccc2c1CN[C@H]1C[C@H](Oc2ccnc(C(F)F)c2)C1", "note": "[Example 111, (1r,3r)-3-((2-(difluoromethyl)pyridin-4-yl)oxy)-N-((6-fluoroisoquinolin-5-yl)methyl)cyclobutan-1-amine]", "values": [
      {"measurement": "IC50", "value": 1.65, "unit": "µM"}
    ]},
    {"smiles": "FC(F)(F)c1ccc(O[C@H]2C[C@H](NCc3cccc4cnccc34)C2)cn1", "note": "[Example 112, (1r,3r)-N-(isoquinolin-5-ylmethyl)-3-((6-(trifluoromethyl)pyridin-3-yl)oxy)cyclobutan-1-amine]", "values": [
      {"measurement": "IC50", "value": 2.69, "unit": "µM"}
    ]}
  ]
}
